{"source": "patent US20240270811A1", "about": "“Glycosylated Neuropeptide Derivative, Pharmaceutical Composition, Intranasal/Nasal Drop Formulation, and Use of Pharmaceutical Composition” (Tokyo University of Science Foundation, priority 2021, published 2024)", "key": {"[1]": {"experiment": "Brain distribution by immunostaining and fluorescence quantification (Example 7)", "assay_type": "in vivo", "conditions": "3.0 nmol/mouse intranasal", "protocol": "Mice were intranasally administered with 16% DMSO or GLP-2 derivatives (3.0 nmol/mouse), and the brain was isolated 5 minutes, 10 minutes, 20 minutes and 60 minutes after the administration.\nThe brain isolated 5 minutes or 10 minutes after the intranasal administration was subjected to infiltration fixation with 4% PFA at 4° C. overnight without performing perfusion fixation. The isolation of the brain 20 minutes or 60 minutes after the intranasal administration was performed by the following process.\nThe mouse was fixed in a supine position under anesthesia with isoflurane, and the chest was incised. PBS and 4% PFA were perfused, in this order, from the left chamber of the heart throughout the whole body for fixing the tissue. The isolated brain was preserved in a 4% PFA solution. On the day following the isolation, the brain samples were substituted with 20% sucrose overnight (4° C.), and further with 30% sucrose overnight (4° C.). Thereafter, a frozen section with a thickness of 30 μm was prepared using a cryostat (CM3050S; Leica Microsystems).\nSections of the olfactory bulb (OB) including olfactory nerves, pons/principal sensory nucleus of trigeminal nerve (Pr5), hippocampus (HIP) and dorsomedial nucleus of the hypothalamus (DMH) were prepared by referring to Nissil staining images and the brain map (Paxinos and Franklin, 2003).\nThe frozen brain section was mounted on a slide glass, and a circle was drawn around the section with a liquid blocker. A blocking buffer was added inside the circle and the section was subjected to blocking for 30 minutes at room temperature. Thereafter, the section was added with a first antibody solution including a GLP-2 polyclonal antibody, diluted 200 times with a blocking solution, and subjected to incubation for 1 hour at room temperature. After washing three times with 1×PBS, the section was added with a second antibody solution including Alexa Fluor (trademark) 568 Goat Anti-Mouse IgG H&L, diluted 500 times with a BSA/PBS solution, and subjected to incubation for 1 hour at room temperature. After washing three times with 1×PBS, the section was mounted with ProLong (trademark) Diamond Antifade Mountant. After confirming the solidification of the mountant, the section was subjected to fluorescent observation and imaging with a confocal laser microscope (TCS SP8; Leica) and a software (Leica Application Suite X Software; Leica). Further, the fluorescent intensity in the image was calculated using the software and an average florescent intensity of each group was quantified.\nThe mice were intranasally administered with a PAS-CPP-GLP-2 (no sugar) or a PAS-CPP-GLP-2 (11-sugar)."}, "[2]": {"experiment": "Observation of section of trigeminal nerve after intranasal administration (FITC-labelled)", "assay_type": "in vivo, mouse", "conditions": "3.0 nmol/4 μL intranasal, 5 minutes", "protocol": "After anesthetizing 7-week-old male ddY mice with isoflurane using an all-in-one small animal anesthetizer, a 16% DMSO solution of a PAS-CPP-GLP-2 derivative (11-sugar) labeled with FITC (3.0 nmol/4 μL) or 16% DMSO as a control was intranasally administered to the mice by the amount of 2 μL per nose cavity, 4 μL in total. The trigeminal nerve was isolated 5 minutes after the administration.\nThe trigeminal nerve was subjected to infiltration fixation with 4% PFA overnight. On the day following the isolation, the trigeminal nerve was substituted with 20% sucrose overnight (4° C.), and further with 30% sucrose overnight (4° C.). Thereafter, a frozen section with a thickness of 20 μm was prepared using a cryostat (CM3050S; Leica Microsystems).\nThe frozen section was mounted on a slide glass, and a circle was drawn around the section with a liquid blocker. To the inner side of the circle, 10 mM CuSO4/CH3COONH4 having an ability to suppress auto-fluorescence was added to immerse the section for 15 minutes. After washing three times with 1×PBS, a blocking buffer was added inside the circle and the section was subjected to blocking for 30 minutes at room temperature. […]"}, "[3]": {"experiment": "Observation of section of trigeminal lemniscus after intranasal administration", "assay_type": "in vivo", "conditions": "3.0 nmol/mouse intranasal, 15 minutes", "protocol": "Mice were intranasally administered with 16% DMSO or a glycosylated GLP-2 derivative (3.0 nmol/mouse). The brain was isolated 15 minutes after the administration, and was subjected to infiltration fixation with 4% PFA overnight. On the day following the isolation, the brain was substituted with 30% sucrose overnight (4° C.). Thereafter, a frozen section of trigeminal lemniscus with a thickness of 30 μm was prepared using a cryostat (CM3050S; Leica Microsystems, WetZlar, Germany).\nThe frozen section was mounted on a slide glass, and was subjected to blocking for 30 minutes at room temperature with a blocking buffer. Thereafter, the section was added with a first antibody solution including Neuro-Chrom (trade name) Pan Neuronal Marker Antibody-Rabbit, diluted with a blocking buffer (1:500), and subjected to incubation overnight (4° C.). After washing three times with 1×PBS, the section was added with a first antibody solution including a GLP-2 polyclonal antibody diluted with a BSA/PBS solution (1:200), and subjected to incubation for 2 hours at room temperature. After washing three times with 1×PBS, the section was added with a second antibody solution including Alexa Fluor (trademark) 568 Goat Anti-Mouse IgG H&L, diluted 1000 times with a 1% BSA/PBS solution and DAPI ([…]), and subjected to incubation for 1 hour at room temperature. […]"}}, "note": "Where no end group is shown, it is not given here. The star is where a group is joined. X1 = CC(=O)N[C@@H]1[C@@H](O)[C@H](O[C@@H]2O[C@H](CO)[C@@H](O[C@@H]3O[C@H](CO[C@H]4O[C@H](CO)[C@@H](O)[C@H](O)[C@@H]4O[C@@H]4O[C@H](CO)[C@@H](O[C@@H]5O[C@H](CO[C@]6(C(=O)O)C[C@H](O)[C@@H](NC(C)=O)[C@H]([C@H](O)[C@H](O)CO)O6)[C@H](O)[C@H](O)[C@H]5O)[C@H](O)[C@H]4NC(C)=O)[C@@H](O)[C@H](O[C@H]4O[C@H](CO)[C@@H](O)[C@H](O)[C@@H]4O[C@@H]4O[C@H](CO)[C@@H](O[C@@H]5O[C@H](CO[C@]6(C(=O)O)C[C@H](O)[C@@H](NC(C)=O)[C@H]([C@H](O)[C@H](O)CO)O6)[C@H](O)[C@H](O)[C@H]5O)[C@H](O)[C@H]4NC(C)=O)[C@@H]3O)[C@H](O)[C@H]2NC(C)=O)[C@@H](CO)O[C@H]1NC(=O)C*"}
{"substance": "FFLIPKGRRRRRRRRGGHADGSFSDEMNTILDNLAARDFINWLIQTKITDC(X1)-OH [PAS-CPP-GLP-2 (11-sugar)]", "values": [{"measurement": "fluorescence at OB and Pr5", "setting": "[1]; 5 minutes", "value": "a significant degree of fluorescence was observed"}, {"measurement": "fluorescence at HIP and DMH", "setting": "[1]; 20 minutes", "value": "intense fluorescence was observed"}, {"measurement": "fluorescence intensity at OB or Pr5 compared with 5 minutes", "setting": "[1]; 20 minutes", "value": "weaker than the fluorescence observed 5 minutes after the administration"}, {"measurement": "fluorescence at HIP and DMH", "setting": "[1]; 60 minutes", "value": "a significant degree of fluorescence was observed"}, {"measurement": "fluorescence at OB and Pr5", "setting": "[1]; 60 minutes", "value": "a significant degree of fluorescence was observed"}, {"measurement": "fluorescence intensity at OB and Pr5 compared with 5 minutes", "setting": "[1]; 60 minutes", "value": "weaker than the fluorescence observed 5 minutes after the administration"}, {"measurement": "fluorescence in section of trigeminal nerve (overlap of derivative and neural fibers)", "setting": "[2]", "value": "expresses yellow fluorescence"}, {"measurement": "fluorescence in nerve bundle that constitutes the trigeminal lemniscus", "setting": "[3]", "value": "a large amount of fluorescence for a drug was observed"}]}
